Reference: patent US9023789B2, “Amylin analogs and pharmaceutical compositions thereof” (Novo Nordisk A/S, priority 2012, dated 2015)
Numbered stars: 1 amine (or outer) side, 2 acyl side, 3 side chain; on linkers, the order of the positions; unused ones are H or OH. Bridge positions count the residues as written; N and C are the ends. Side chains are listed from the residue outwards. Peptide text beside a SMILES is read from it. * marks the point of attachment. C20 diacid = O=C(O)CCCCCCCCCCCCCCCCCCC(=O)*; γGlu = O=C(O)[C@H](CCC(=O)[*:2])N[*:1]

What was measured:
[1] = target: T1, rat amylin receptor (rat calcitonin receptor + rat RAMP 3) (Rattus norvegicus, UniProt P32214+Q9JJ73); test: ASSAY (VI) binding to the rat amylin receptor; details: for IC50: binding to rat amylin receptor, read-out: rAmylin-R bind IC50
T1 construct: expressed in transfected cells; host or cells: BHK tk'ts 13 (transient, FuGENE 6), membranes
T1 sequence (P32214 25-479 isoform P32214-2 limits assumed): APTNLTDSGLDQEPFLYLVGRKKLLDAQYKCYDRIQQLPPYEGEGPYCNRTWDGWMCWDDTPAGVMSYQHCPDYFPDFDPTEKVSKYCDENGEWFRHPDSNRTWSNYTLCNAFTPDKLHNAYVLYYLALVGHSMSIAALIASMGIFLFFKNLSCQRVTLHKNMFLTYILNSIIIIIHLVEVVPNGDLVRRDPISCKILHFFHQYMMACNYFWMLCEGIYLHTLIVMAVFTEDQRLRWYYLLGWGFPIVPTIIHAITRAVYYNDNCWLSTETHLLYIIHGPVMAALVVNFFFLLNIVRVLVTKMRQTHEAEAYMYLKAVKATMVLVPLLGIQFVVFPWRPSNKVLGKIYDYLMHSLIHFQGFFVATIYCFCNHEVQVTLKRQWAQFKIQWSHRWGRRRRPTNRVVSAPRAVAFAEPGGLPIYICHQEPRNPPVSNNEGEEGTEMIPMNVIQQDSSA
T1 sequence (Q9JJ73 23-147 partner): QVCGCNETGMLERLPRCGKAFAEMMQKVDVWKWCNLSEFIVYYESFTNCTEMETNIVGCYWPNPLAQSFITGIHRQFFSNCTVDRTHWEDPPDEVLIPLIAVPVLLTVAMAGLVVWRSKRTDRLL
How it was run: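 Binding to the rat amylin receptor was determined with membrane preparations. The receptor was expressed by transiently transfecting BHK tk′ts 13 cells with rat calcitonin receptor, using FuGENE® 6 (Roche) according to the manufacturer's recommendations. Roughly 48 hours later the cells were harvested and their membranes isolated.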

[2] = ASSAY (III) ThT fibrillation assay for physical stability; assay type: physicochemical
How it was run: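 Formulations with 1 μM ThT, pH adjusted as required, incubated at 37 °C with 960 rpm orbital shaking; fluorescence (ex 444/em 485 nm) read every 20 min. Fibrillation reported as mean ThT fluorescence ± SD of 4–8 replicates at time points; polypeptide concentration measured by reverse-phase HPLC before and after, post-centrifugation.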

[3] = Table 7, rat binding selectivity, rCTR IC50 / rAmylin-R IC50
[4] = Table 7a (preferred compounds), rat binding selectivity, rCTR IC50 / rAmylin-R IC50
[5] = ratio of rCTR bind IC50 to rAmylin-R bind IC50

Structure (SMILES) | IC50 ([1]; Table 7) [pM] | Ratio rCT/rAmylin binding [1, 3] | Ratio rCT/rAmylin binding [1, 4] | Ratio rCT/rAmylin binding [1, 5] | ThT pH 4.0 lag time (h) [2] [h]
CC[C@H](C)[C@H](NC(=O)[C@H](C)NC(=O)CNC(=O)[C@H](Cc1ccccc1)NC(=O)[C@H](CC(N)=O)NC(=O)[C@@H]1CCCN1C(=O)[C@H](CO)NC(=O)[C@H](CO)NC(=O)[C@H](Cc1c[nH]cn1)NC(=O)[C@H](CCCNC(=N)N)NC(=O)[C@H](CC(C)C)NC(=O)[C@H](Cc1ccccc1)NC(=O)[C@H](CC(=O)O)NC(=O)[C@H](C)NC(=O)[C@H](CC(C)C)NC(=O)[C@H](CCCNC(=N)N)NC(=O)[C@H](CCC(N)=O)NC(=O)[C@@H](NC(=O)[C@H](C)NC(=O)[C@@H]1CSSC[C@H](NC(=O)[C@@H](N)CCCCNC(=O)CC[C@H](NC(=O)CCCCCCCCCCCCCCCCCCC(=O)O)C(=O)O)C(=O)N[C@@H](CC(N)=O)C(=O)N[C@@H]([C@@H](C)O)C(=O)N[C@@H](C)C(=O)N[C@@H]([C@@H](C)O)C(=O)N1)[C@@H](C)O)C(=O)N1CCC[C@H]1C(=O)N[C@@H](CO)C(=O)N[C@@H](CO)C(=O)N[C@H](C(=O)N[C@@H](CC(N)=O)C(=O)N[C@H](C(=O)NCC(=O)N1CCC[C@H]1C(=O)N[C@@H](CCC(=O)O)C(=O)N[C@H](C(=O)N[C@@H](Cc1ccc(O)cc1)C(N)=O)[C@@H](C)O)C(C)C)[C@@H](C)O [Example 123] (H-K([γGlu-C20 diacid])CNTATCATQRLADFLRHSSPNFGAIPSSTNVGPETY-NH2; disulfide 2-7; N-terminus assumed) | 300 | 62.0 | 62.0 | 62.0 | 30
CC[C@H](C)[C@H](NC(=O)[C@H](C)NC(=O)CNC(=O)[C@H](Cc1ccccc1)NC(=O)[C@H](CC(N)=O)NC(=O)[C@@H]1CCCN1C(=O)[C@H](CO)NC(=O)[C@H](CO)NC(=O)[C@H](Cc1c[nH]cn1)NC(=O)[C@H](CCCNC(=N)N)NC(=O)[C@H](CC(C)C)NC(=O)[C@H](Cc1ccccc1)NC(=O)[C@H](CCC(=O)O)NC(=O)[C@H](C)NC(=O)[C@H](CC(C)C)NC(=O)[C@H](CCCNC(=N)N)NC(=O)[C@H](CCC(N)=O)NC(=O)[C@@H](NC(=O)[C@H](C)NC(=O)[C@@H]1CSSC[C@H](NC(=O)[C@@H](N)CCCCNC(=O)CC[C@H](NC(=O)CC[C@H](NC(=O)CCCCCCCCCCCCCCCCCCC(=O)O)C(=O)O)C(=O)O)C(=O)N[C@@H](CC(N)=O)C(=O)N[C@@H]([C@@H](C)O)C(=O)N[C@@H](C)C(=O)N[C@@H]([C@@H](C)O)C(=O)N1)[C@@H](C)O)C(=O)N1CCC[C@H]1C(=O)N[C@@H](CO)C(=O)N[C@@H](CO)C(=O)N[C@H](C(=O)N[C@@H](CC(N)=O)C(=O)N[C@H](C(=O)NCC(=O)N1CCC[C@H]1C(=O)N[C@@H](Cc1c[nH]cn1)C(=O)N[C@H](C(=O)N[C@@H](Cc1ccc(O)cc1)C(N)=O)[C@@H](C)O)C(C)C)[C@@H](C)O [Example 124] (H-K([γGlu-γGlu-C20 diacid])CNTATCATQRLAEFLRHSSPNFGAIPSSTNVGPHTY-NH2; disulfide 2-7 (inferred)) | 288 | 73.0 | 73.0 | 73.0 | 45
CC[C@H](C)[C@H](NC(=O)[C@H](C)NC(=O)CNC(=O)[C@H](Cc1ccccc1)NC(=O)[C@H](CC(N)=O)NC(=O)[C@@H]1CCCN1C(=O)[C@H](CO)NC(=O)[C@H](CO)NC(=O)[C@H](Cc1c[nH]cn1)NC(=O)[C@H](CCCNC(=N)N)NC(=O)[C@H](CC(C)C)NC(=O)[C@H](Cc1ccccc1)NC(=O)[C@H](CCC(=O)O)NC(=O)[C@H](C)NC(=O)[C@H](CC(C)C)NC(=O)[C@H](CCCNC(=N)N)NC(=O)[C@H](CCC(N)=O)NC(=O)[C@@H](NC(=O)[C@H](C)NC(=O)[C@@H]1CSSC[C@H](NC(=O)[C@@H](N)CCCCNC(=O)CC[C@H](NC(=O)CC[C@H](NC(=O)CCCCCCCCCCCCCCCCCCC(=O)O)C(=O)O)C(=O)O)C(=O)N[C@@H](CC(N)=O)C(=O)N[C@@H]([C@@H](C)O)C(=O)N[C@@H](C)C(=O)N[C@@H]([C@@H](C)O)C(=O)N1)[C@@H](C)O)C(=O)N1CCC[C@H]1C(=O)N[C@@H](CO)C(=O)N[C@@H](CO)C(=O)N[C@H](C(=O)N[C@@H](CC(N)=O)C(=O)N[C@H](C(=O)NCC(=O)N1CCC[C@H]1C(=O)N[C@@H](CCC(=O)O)C(=O)N[C@H](C(=O)N1CCC[C@H]1C(N)=O)[C@@H](C)O)C(C)C)[C@@H](C)O [Example 125] (H-K([γGlu-γGlu-C20 diacid])CNTATCATQRLAEFLRHSSPNFGAIPSSTNVGPETP-NH2; disulfide 2-7 (inferred); N-terminus assumed) | 152 | 10.6 | 10.6 | – | 23
CC[C@H](C)[C@H](NC(=O)[C@H](C)NC(=O)CNC(=O)[C@H](Cc1ccccc1)NC(=O)[C@H](CC(N)=O)NC(=O)[C@@H]1CCCN1C(=O)[C@H](CO)NC(=O)[C@H](CO)NC(=O)[C@H](Cc1c[nH]cn1)NC(=O)[C@H](CCCNC(=N)N)NC(=O)[C@H](CC(C)C)NC(=O)[C@H](Cc1ccccc1)NC(=O)[C@H](CCC(=O)O)NC(=O)[C@H](C)NC(=O)[C@H](CC(C)C)NC(=O)[C@H](CCCNC(=N)N)NC(=O)[C@H](CCC(N)=O)NC(=O)[C@@H](NC(=O)[C@H](C)NC(=O)[C@@H]1CSSC[C@H](NC(=O)[C@@H](N)CCCCNC(=O)CC[C@H](NC(=O)CC[C@H](NC(=O)CCCCCCCCCCCCCCCCCCC(=O)O)C(=O)O)C(=O)O)C(=O)N[C@@H](CC(N)=O)C(=O)N[C@@H]([C@@H](C)O)C(=O)N[C@@H](C)C(=O)N[C@@H]([C@@H](C)O)C(=O)N1)[C@@H](C)O)C(=O)N1CCC[C@H]1C(=O)N[C@@H](CO)C(=O)N[C@@H](CO)C(=O)N[C@H](C(=O)N[C@@H](CC(N)=O)C(=O)N[C@H](C(=O)NCC(=O)N1CCC[C@H]1C(=O)N[C@@H](CC(N)=O)C(=O)N[C@H](C(=O)N[C@@H](Cc1ccccc1)C(N)=O)[C@@H](C)O)C(C)C)[C@@H](C)O [Example 127] (H-K([γGlu-γGlu-C20 diacid])CNTATCATQRLAEFLRHSSPNFGAIPSSTNVGPNTF-NH2; disulfide 2-7 (inferred)) | 205 | 114.0 | 114.0 | 114.0 | 25
CC[C@H](C)[C@H](NC(=O)[C@H](C)NC(=O)CNC(=O)[C@H](Cc1ccccc1)NC(=O)[C@H](CC(N)=O)NC(=O)[C@@H]1CCCN1C(=O)[C@H](CO)NC(=O)[C@H](CO)NC(=O)[C@H](Cc1c[nH]cn1)NC(=O)[C@H](CCCNC(=N)N)NC(=O)[C@H](CC(C)C)NC(=O)[C@H](Cc1ccccc1)NC(=O)[C@H](CCC(=O)O)NC(=O)[C@H](C)NC(=O)[C@H](CC(C)C)NC(=O)[C@H](CCCNC(=N)N)NC(=O)[C@H](CCC(N)=O)NC(=O)[C@@H](NC(=O)[C@H](C)NC(=O)[C@@H]1CSSC[C@H](NC(=O)[C@@H](N)CCCCNC(=O)CC[C@H](NC(=O)CCCCCCCCCCCCCCCCCCC(=O)O)C(=O)O)C(=O)N[C@@H](CC(N)=O)C(=O)N[C@@H]([C@@H](C)O)C(=O)N[C@@H](C)C(=O)N[C@@H]([C@@H](C)O)C(=O)N1)[C@@H](C)O)C(=O)N1CCC[C@H]1C(=O)N[C@@H](CO)C(=O)N[C@@H](CO)C(=O)N[C@H](C(=O)N[C@@H](CC(N)=O)C(=O)N[C@H](C(=O)NCC(=O)N[C@@H](CO)C(=O)N[C@@H](Cc1c[nH]cn1)C(=O)N[C@H](C(=O)N[C@@H](Cc1ccc(O)cc1)C(N)=O)[C@@H](C)O)C(C)C)[C@@H](C)O [Example 128] (H-K([γGlu-C20 diacid])CNTATCATQRLAEFLRHSSPNFGAIPSSTNVGSHTY-NH2; disulfide 2-7 (inferred); N-terminus assumed) | 1160 | 22.7 | 22.7 | 22.7 | 41
